Measurements reported in article PMC9250534, “Synthesis and direct assay of large macrocycle diversities by combinatorial late-stage modification at picomole scale” (Nature Communications, 2022).
Where “and” joins values, the source holds several entries; their conditions need not be identical. Equal values may be shown once. Read-outs that look alike come from different tables or passages of the source.

How the values were obtained:
MDM2 [1] = target: T1, MDM2 (Homo sapiens, UniProt Q00987); assay: MDM2 binding (FP53 displacement) by HPLC fractions of resynthesized hit reactions
T1 sequence (Q00987 whole entry): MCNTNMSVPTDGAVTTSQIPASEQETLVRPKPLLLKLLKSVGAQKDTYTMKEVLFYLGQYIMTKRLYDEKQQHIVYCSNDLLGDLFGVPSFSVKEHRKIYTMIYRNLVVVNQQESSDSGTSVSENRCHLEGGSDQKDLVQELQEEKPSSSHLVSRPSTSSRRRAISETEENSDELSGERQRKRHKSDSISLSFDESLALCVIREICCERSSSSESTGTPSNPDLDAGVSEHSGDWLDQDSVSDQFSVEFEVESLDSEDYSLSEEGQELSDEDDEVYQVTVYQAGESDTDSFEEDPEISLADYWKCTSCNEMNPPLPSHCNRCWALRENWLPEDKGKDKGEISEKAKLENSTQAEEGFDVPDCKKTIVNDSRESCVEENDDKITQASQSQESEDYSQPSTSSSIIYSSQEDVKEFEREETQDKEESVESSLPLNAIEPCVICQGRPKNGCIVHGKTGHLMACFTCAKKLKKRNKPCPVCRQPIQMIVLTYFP
Description: For hits from the MDM2 screen, reactions were performed in the same way but at a 50 nmol scale, and purified with the same method but a 10–80% gradient of solvent B and over 22 min. Fractions were lyophilized and dissolved in 40 μL of DMSO, 160 μL of water was added, and 5 μL of each fraction was transferred to a 384-well plate (Nunc, 264705), and 15 μL of premixed MDM2/FP53 peptide were added (final concentrations: 1.2 μM MDM2, 50 nM FP53, 5% DMSO).

MDM2 [2] = target: T1, MDM2; assay: IC50 of purified MDM2-binding macrocycles, fluorescence polarization competition with FP53; conditions: for IC50: HPLC-purified macrocycle, FP displacement of fluorescent reporter peptide; for displacement of fluorescent peptide probe from MDM2: HPLC-purified macrocycles, FP competition; for anisotropy: replicates 1-3
Description: Volumes of 5 μL of purified macrocycles (20 mM in DMSO) were serial diluted two-fold in 100% DMSO in a low dead-volume ECHO source plate. Using acoustic droplet transfer, 150 nL of each dilution was transferred to a 384 well low volume polystyrene plate (Nunc, 264705). […] Fluorescence anisotropy was measured as described above. The percentage of bound inhibitor was calculated using the following equation4 %boundinhibitor=N−X/N−P×100 where N is the average anisotropy of the DMSO controls, X is the anisotropy value obtained for each well, and P is the average anisotropy of the unbound probe. The IC50s were determined by plotting the percent of bound inhibitor against the logarithm of the corresponding macrocycle concentration, and the curves were fitted in GraphPad Prism 6 as described above.

MDM2 [3] = target: T1, MDM2; assay: MDM2 binding screen of Libraries 3 and 4: displacement of fluorescent probe F-M8 at 750 nM macrocycle; conditions: 750 nM macrocycle; crude reaction; probe F-M8
Method in brief: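 Competition with nutlin-3a was run using the fluorescein conjugate. Library members came from scaffolds reacted 6 h at room temperature with carboxylic acids (20 equiv.), HBTU and DABCO in DMSO. Quenching was overnight in Tris-Cl pH 7.4 buffer with 0.01% Tween20.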

[4] = HPLC Fraction 1 of acylation reaction
[5] = HPLC Fraction 2 of acylation reaction
[6] = HPLC Fraction 3 of acylation reaction
[7] = HPLC Fraction 4 of acylation reaction
[8] = HPLC Fraction 5 of acylation reaction
[9] = HPLC Fraction 6 of acylation reaction
[10] = HPLC Fraction 7 of acylation reaction
[11] = HPLC Fraction 8 of acylation reaction
[12] = HPLC Fraction 9 of acylation reaction
[13] = HPLC Fraction 10 of acylation reaction
[14] = HPLC Fraction 11 of acylation reaction
[15] = HPLC Fraction 12 of acylation reaction
[16] = HPLC Fraction 13 of acylation reaction
[17] = HPLC Fraction 14 of acylation reaction
[18] = HPLC Fraction 15 of acylation reaction
[19] = HPLC Fraction 16 of acylation reaction
[20] = HPLC Fraction 17 of acylation reaction
[21] = HPLC Fraction 18 of acylation reaction
[22] = HPLC Fraction 19 of acylation reaction
[23] = HPLC Fraction 20 of acylation reaction
[24] = average of 3 replicates, read-out: IC50 Average
[25] = replicate 1, read-out: IC50 Replicate 1
[26] = replicate 2, read-out: IC50 Replicate 2
[27] = replicate 3, read-out: IC50 Replicate 3

## O=C(NC[C@@H]1NC(=O)[C@H]2CCCN(C2)C(=O)CCSSCCNC(=O)[C@H](Cc2c[nH]c3ccccc23)NC1=O)c1ccc(Cl)cc1 [M7]
MDM2 [1]; [4]
  Fraction bound (fraction fluorescent probe displaced): 0.06
MDM2 [1]; [5]
  Fraction bound (fraction fluorescent probe displaced): 0.33
MDM2 [1]; [6]
  Fraction bound (fraction fluorescent probe displaced): 0.08
MDM2 [1]; [7]
  Fraction bound (fraction fluorescent probe displaced): -0.000869
MDM2 [1]; [8]
  Fraction bound (fraction fluorescent probe displaced): -0.0216
MDM2 [1]; [9]
  Fraction bound (fraction fluorescent probe displaced): 0.02
MDM2 [1]; [10]
  Fraction bound (fraction fluorescent probe displaced): 0.02
MDM2 [1]; [11]
  Fraction bound (fraction fluorescent probe displaced): 0.02
MDM2 [1]; [12]
  Fraction bound (fraction fluorescent probe displaced): 0.02
MDM2 [1]; [13]
  Fraction bound (fraction fluorescent probe displaced): 0.08
MDM2 [1]; [14]
  Fraction bound (fraction fluorescent probe displaced): -0.000869
MDM2 [1]; [15]
  Fraction bound (fraction fluorescent probe displaced): -0.06
MDM2 [1]; [16]
  Fraction bound (fraction fluorescent probe displaced): -0.0422
MDM2 [1]; [17]
  Fraction bound (fraction fluorescent probe displaced): 0.29
MDM2 [1]; [18]
  Fraction bound (fraction fluorescent probe displaced): -0.0216
MDM2 [1]; [19]
  Fraction bound (fraction fluorescent probe displaced): -0.10
MDM2 [1]; [20]
  Fraction bound (fraction fluorescent probe displaced): -0.10
MDM2 [1]; [21]
  Fraction bound (fraction fluorescent probe displaced): -0.15
MDM2 [1]; [22]
  Fraction bound (fraction fluorescent probe displaced): -0.25
MDM2 [1]; [23]
  Fraction bound (fraction fluorescent probe displaced): -0.21
MDM2 [2]; [24]
  IC50: 3.7 µM
MDM2 [2]; [25]
  IC50: 3.8 µM
MDM2 [2]; [26]
  IC50: 2 µM
MDM2 [2]; [27]
  IC50: 5.3 µM
MDM2 [2]
  displacement of fluorescent peptide probe from MDM2: efficiently displaced
MDM2 [2]; Log[Macrocycle] M -4.0
  anisotropy: 39 and 34 and 33
MDM2 [2]; Log[Macrocycle] M -4.3
  anisotropy: 47 and 37 and 40
MDM2 [2]; Log[Macrocycle] M -4.6
  anisotropy: 50 and 42 and 45
MDM2 [2]; Log[Macrocycle] M -4.9
  anisotropy: 54 and 48 and 49
MDM2 [2]; Log[Macrocycle] M -5.2
  anisotropy: 60 and 47 and 53
MDM2 [2]; Log[Macrocycle] M -5.5
  anisotropy: 68 and 53 and 61
MDM2 [2]; Log[Macrocycle] M -5.8
  anisotropy: 73 and 55 and 63
MDM2 [2]; Log[Macrocycle] M -6.1
  anisotropy: 81 and 61 and 69
MDM2 [2]; Log[Macrocycle] M -6.4
  anisotropy: 87 and 68 and 75
MDM2 [2]; Log[Macrocycle] M -6.7
  anisotropy: 89 and 72 and 77
MDM2 [2]; Log[Macrocycle] M -7.0
  anisotropy: 92 and 75 and 82
MDM2 [2]; Log[Macrocycle] M -7.3
  anisotropy: 92 and 72 and 85
MDM2 [2]; Log[Macrocycle] M -7.6
  anisotropy: 97 and 81 and 87
MDM2 [2]; Log[Macrocycle] M -7.9
  anisotropy: 94 and 83 and 85
MDM2 [2]; Log[Macrocycle] M -8.2
  anisotropy: 94 and 79 and 89
MDM2 [2]; Log[Macrocycle] M -8.5
  anisotropy: 96 and 78 and 86

## O=C(/C=C/c1ccccc1)NC[C@@H]1NC(=O)[C@H]2CCCN(C2)C(=O)CCSSCCNC(=O)[C@H](Cc2c[nH]c3ccccc23)NC1=O [M8]
MDM2 [1]; [4]
  Fraction bound (fraction fluorescent probe displaced): 0.08
MDM2 [1]; [5]
  Fraction bound (fraction fluorescent probe displaced): 0.25
MDM2 [1]; [6]
  Fraction bound (fraction fluorescent probe displaced): 0.02
MDM2 [1]; [7]
  Fraction bound (fraction fluorescent probe displaced): -0.000869
MDM2 [1]; [8]
  Fraction bound (fraction fluorescent probe displaced): -0.0422
MDM2 [1]; [9]
  Fraction bound (fraction fluorescent probe displaced): -0.000869
MDM2 [1]; [10]
  Fraction bound (fraction fluorescent probe displaced): 0.02
MDM2 [1]; [11]
  Fraction bound (fraction fluorescent probe displaced): 0.02
MDM2 [1]; [12]
  Fraction bound (fraction fluorescent probe displaced): 0.04
MDM2 [1]; [13]
  Fraction bound (fraction fluorescent probe displaced): -0.0422
MDM2 [1]; [14]
  Fraction bound (fraction fluorescent probe displaced): -0.0422
MDM2 [1]; [15]
  Fraction bound (fraction fluorescent probe displaced): -0.0216
MDM2 [1]; [16]
  Fraction bound (fraction fluorescent probe displaced): 0.37
MDM2 [1]; [17]
  Fraction bound (fraction fluorescent probe displaced): 0.04
MDM2 [1]; [18]
  Fraction bound (fraction fluorescent probe displaced): -0.13
MDM2 [1]; [19]
  Fraction bound (fraction fluorescent probe displaced): -0.0216
MDM2 [1]; [20]
  Fraction bound (fraction fluorescent probe displaced): -0.0216
MDM2 [1]; [21]
  Fraction bound (fraction fluorescent probe displaced): -0.21
MDM2 [1]; [22]
  Fraction bound (fraction fluorescent probe displaced): -0.17
MDM2 [1]; [23]
  Fraction bound (fraction fluorescent probe displaced): -0.23
MDM2 [3]
  displacement of fluorescent probe from MDM2: 21%
MDM2 [2]; [24]
  IC50: 0.9 µM
MDM2 [2]; [25]
  IC50: 1 µM
MDM2 [2]; [26]
  IC50: 0.84 µM
MDM2 [2]; [27]
  IC50: 0.86 µM
MDM2 [2]
  displacement of fluorescent peptide probe from MDM2: efficiently displaced
MDM2 [2]; Log[Macrocycle] M -4.0
  anisotropy: 50 and 44 and 45
MDM2 [2]; Log[Macrocycle] M -4.3
  anisotropy: 50 and 43 and 47
MDM2 [2]; Log[Macrocycle] M -4.6
  anisotropy: 52 and 45 and 51
MDM2 [2]; Log[Macrocycle] M -4.9
  anisotropy: 53 and 50 and 49
MDM2 [2]; Log[Macrocycle] M -5.2
  anisotropy: 59 and 42 and 53
MDM2 [2]; Log[Macrocycle] M -5.5
  anisotropy: 61 and 53 and 54
MDM2 [2]; Log[Macrocycle] M -5.8
  anisotropy: 67 and 55 and 59
MDM2 [2]; Log[Macrocycle] M -6.1
  anisotropy: 73 and 65 and 68
MDM2 [2]; Log[Macrocycle] M -6.4
  anisotropy: 80 and 68 and 73
MDM2 [2]; Log[Macrocycle] M -6.7
  anisotropy: 85 and 73 and 80
MDM2 [2]; Log[Macrocycle] M -7.0
  anisotropy: 87 (2×) and 82
MDM2 [2]; Log[Macrocycle] M -7.3
  anisotropy: 92 and 79 and 84
MDM2 [2]; Log[Macrocycle] M -7.6
  anisotropy: 94 and 80 and 85
MDM2 [2]; Log[Macrocycle] M -7.9
  anisotropy: 90 and 80 and 83
MDM2 [2]; Log[Macrocycle] M -8.2
  anisotropy: 94 and 77 and 85
MDM2 [2]; Log[Macrocycle] M -8.5
  anisotropy: 93 and 83 (2×)
